# Numbers after ± are expanded uncertainties.
# How the values were obtained:
# [1] = 101.33 kPa, Liquid, Vibrating tube method
# [2] = activity coefficient (dimensionless); of the first substance listed, at infinite dilution; xn = mol fraction of the nth substance listed; conditions: 101 kPa, Liquid, Chromatography, x1 = 0
activity coefficient ([2]; 353.15 K),activity coefficient ([2]; 373.15 K),SMILES,activity coefficient ([2]; 323.15 K),activity coefficient ([2]; 333.15 K),activity coefficient ([2]; 343.15 K),further results
,,CC1(C)[C@@H]2CC[C@@]1(CS(=O)(=O)[O-])C(=O)C2.CCCCCCCCCCCCCC[N+](CCCCCC)(CCCCCC)CCCCCC,,,,mass density ([1]; 298.55 K): 963.8 ± 0.3 kg/m3; mass density ([1]; 313.45 K): 953.4 ± 0.3 kg/m3; mass density ([1]; 323.45 K): 946.1 ± 0.3 kg/m3; mass density ([1]; 333.25 K): 939.1 ± 0.3 kg/m3
,,"CCCCCCCCCCCCCC[N+](CCCCCC)(CCCCCC)CCCCCC.C[C@H](O)C(=O)[O-] [N,N,N-trihexyl-1-tetradecanaminium (2S)-2-hydroxypropanoate]",,,,mass density ([1]; 298.55 K): 894.8 ± 0.3 kg/m3; mass density ([1]; 313.45 K): 885.7 ± 0.3 kg/m3; mass density ([1]; 323.45 K): 879.9 ± 0.3 kg/m3; mass density ([1]; 333.25 K): 874.5 ± 0.3 kg/m3
,,CCCCO [butan-1-ol] + CC1(C)[C@@H]2CC[C@@]1(CS(=O)(=O)[O-])C(=O)C2.CCCCCCCCCCCCCC[N+](CCCCCC)(CCCCCC)CCCCCC,0.09 ± 0.03,0.15 ± 0.03,0.27 ± 0.03,
1.27 ± 0.08,1.25 ± 0.08,"CC(C)CC(C)(C)C [2,2,4-trimethylpentane] + CCCCCCCCCCCCCC[N+](CCCCCC)(CCCCCC)CCCCCC.C[C@H](O)C(=O)[O-]",1.33 ± 0.09,,,
1.06 ± 0.07,1.06 ± 0.07,CCCCCC [hexane] + CCCCCCCCCCCCCC[N+](CCCCCC)(CCCCCC)CCCCCC.C[C@H](O)C(=O)[O-],1.11 ± 0.07,,,
0.55 ± 0.04,0.57 ± 0.04,CCC(=O)CC [pentan-3-one] + CCCCCCCCCCCCCC[N+](CCCCCC)(CCCCCC)CCCCCC.C[C@H](O)C(=O)[O-],0.55 ± 0.04,,,
,,ClC(Cl)Cl [trichloromethane] + CC1(C)[C@@H]2CC[C@@]1(CS(=O)(=O)[O-])C(=O)C2.CCCCCCCCCCCCCC[N+](CCCCCC)(CCCCCC)CCCCCC,0.05,0.09 ± 0.03,0.15 ± 0.03,
,,CCCCCCCCCCCC [dodecane] + CC1(C)[C@@H]2CC[C@@]1(CS(=O)(=O)[O-])C(=O)C2.CCCCCCCCCCCCCC[N+](CCCCCC)(CCCCCC)CCCCCC,1.72 ± 0.12,3.15 ± 0.22,5.14 ± 0.35,
0.82 ± 0.05,0.81 ± 0.05,CC1CCCCC1 [methylcyclohexane] + CCCCCCCCCCCCCC[N+](CCCCCC)(CCCCCC)CCCCCC.C[C@H](O)C(=O)[O-],0.86 ± 0.06,,,
,,CCCCCCCCC [nonane] + CC1(C)[C@@H]2CC[C@@]1(CS(=O)(=O)[O-])C(=O)C2.CCCCCCCCCCCCCC[N+](CCCCCC)(CCCCCC)CCCCCC,1.5 ± 0.1,2.26 ± 0.15,3.24 ± 0.22,
,,CC(C)CO [2-methyl-1-propanol] + CC1(C)[C@@H]2CC[C@@]1(CS(=O)(=O)[O-])C(=O)C2.CCCCCCCCCCCCCC[N+](CCCCCC)(CCCCCC)CCCCCC,0.08 ± 0.03,0.15 ± 0.03,0.24 ± 0.03,
,,CO [methanol] + CC1(C)[C@@H]2CC[C@@]1(CS(=O)(=O)[O-])C(=O)C2.CCCCCCCCCCCCCC[N+](CCCCCC)(CCCCCC)CCCCCC,0.08 ± 0.03,0.13 ± 0.03,0.2,
,,CC#N [acetonitrile] + CC1(C)[C@@H]2CC[C@@]1(CS(=O)(=O)[O-])C(=O)C2.CCCCCCCCCCCCCC[N+](CCCCCC)(CCCCCC)CCCCCC,0.46 ± 0.04,0.66 ± 0.05,0.89 ± 0.06,
,,CCCCCC [hexane] + CC1(C)[C@@H]2CC[C@@]1(CS(=O)(=O)[O-])C(=O)C2.CCCCCCCCCCCCCC[N+](CCCCCC)(CCCCCC)CCCCCC,1.05 ± 0.07,1.54 ± 0.1,1.81 ± 0.12,
,,CCCO [propan-1-ol] + CC1(C)[C@@H]2CC[C@@]1(CS(=O)(=O)[O-])C(=O)C2.CCCCCCCCCCCCCC[N+](CCCCCC)(CCCCCC)CCCCCC,0.09 ± 0.03,0.16 ± 0.03,0.26 ± 0.03,
0.29 ± 0.03,0.3 ± 0.1,c1ccsc1 [thiophene] + CCCCCCCCCCCCCC[N+](CCCCCC)(CCCCCC)CCCCCC.C[C@H](O)C(=O)[O-],0.28 ± 0.03,,,
